{"source": "patent US7378427B2", "about": "“Processes for preparing 6-alkyl-5-arylsulfonyl-dihydrophenanthridines” (Wyeth, priority 2004, dated 2008)", "key": {"C57BL/6 mice": {"tested_on": "C57BL/6 mice", "test": "Uterine wet weight increase in ovariectomized C57BL/6 mice", "type": "in vivo", "conditions": "EE 0.01 mg/kg/day, test compound 10 mg/kg/day, gavage once daily for 5 weeks, compared to vehicle control", "method": "Ovariectomized C57BL/6 mice (16-20 g) (Taconic) were separated into groups of 8. After 5-7 days of recuperation, the mice were fed a chow diet or an atherogenic diet (15.75% fat, 1.25% cholesterol and 0.5% sodium cholate) (Purina diet #21539). EE or test compound was administered once daily by gavage in a methylcellulose/tween vehicle (0.1 ml per mouse) for 5 weeks. At the end of the experimental period, the liver was collected and uterine wet weight was recorded."}, "IL-6": {"tested_on": "IL-6", "test": "HAECT-1 IL-6 expression assay (ELISA) in Ad5-wt-ER infected cells (IL-1β induced)", "type": "cell-based, human", "conditions": "Ad5-wt-ER infected HAECT-1 cells; for IC50: IL-1β, IL-6 ELISA; for IL-6 Efficacy: relative to the maximal inhibition observed with E2", "method": "(§1) T-175 flasks of 100% confluent HAECT-1 cells (immortalized human aortic endothelial cells) were washed with 8 mL of HBSS (HEPES buffered saline solution) and infected for four hours with 6 mL of a 1:10 dilution of Ad5-wt-hERα virus (an adenovirus transfection vector that mediates CMV promoter driven expression of human ERα) in phenol red free Endothelial Cell Basal medium (Clonetics, San Diego Calif., Catalog #CC-3129) containing 0.25% bovine serum albumin (EBM-BSA). After four hours, the cells were washed with EBM-BSA and incubated overnight in the same medium. Following overnight incubation, the cells were washed with EBM-BSA and infected for 2 hours with 6 mL of a 1:10 dilution of Ad5-3×(NFκB). Luc virus (Adenovirus luciferase expression vector driven by 3 repeats of the MHC NFκb site 5′ to the thymidine kinase promoter) in EBM-BSA. After two hours, the cells were washed and incubated at 34° C. for 1 hour. The cells were then washed, trypsinized, counted and resuspended in 95% FBS/5% dimethylsulfoxide at a concentration of 4×10^6 cells/mL, frozen as 1 or 5 mL aliquots in cryo-vials and stored at −150° C. Control (no ER infection) cells were processed as above without Ad5-wt-hERα virus infection.\nERα infected HAECT-1 cells or control cells were thawed, diluted 42× in warm EBM-BSA, plated into 96-well plates at 0.1 mL/well and incubated for 4 h at 34° C. Test compounds were added to the cells as 2× stocks in EBM-BSA containing 2 ng/mL IL-1β (R&D Systems) and plates were returned to the incubator (34° C.). After 15-20 h, 100 μL aliquots of media were removed from the cells and assayed for IL-6 content using a BioSource human IL-6 ELISA Kit. Cells were subsequently washed with 300 μL of Dulbecco's phosphate buffered saline and lysed in 50 μL of Cell Culture Lysis Reagent (Promega). Luciferase was determined on a Wallac Victor^2 Luminometer (Gaithersburg, Md.) using 10 μL of lysate and mixing with 100 μL of Promega Luciferase Assay reagent. Creatine kinase was determined from the rate of increase in A340 following addition of 100 μL of CK assay reagent (Sigma, cat. No 47-10) to the remainder of the cell lysate.\n(§2) For IC50 and EC50 calculations, mean IL-6, luciferase or CK values versus log10 of the compound concentration were fitted to a four parameter logistic equation. The IC50/EC50 value, ‘Hill slope’, upper and lower limits of the curve were iteratively estimated."}, "NF-κB": {"tested_on": "NF-κB", "test": "HAECT-1 NF-κB luciferase reporter assay in Ad5-wt-ER infected cells (IL-1β induced)", "type": "cell-based, human", "conditions": "Ad5-wt-ER infected HAECT-1 cells", "method": "Control (no ER infection) cells were processed as above without Ad5-wt-hERα virus infection.\nCells were subsequently washed with 300 μL of Dulbecco's phosphate buffered saline and lysed in 50 μL of Cell Culture Lysis Reagent (Promega). Luciferase was determined on a Wallac Victor^2 Luminometer (Gaithersburg, Md.) using 10 μL of lysate and mixing with 100 μL of Promega Luciferase Assay reagent. Creatine kinase was determined from the rate of increase in A340 following addition of 100 μL of CK assay reagent (Sigma, cat. No 47-10) to the remainder of the cell lysate.\nas §2"}, "creatine kinase (CK)": {"tested_on": "creatine kinase (CK)", "test": "HAECT-1 creatine kinase (CK) expression assay in Ad5-wt-ER infected cells", "type": "cell-based, human", "conditions": "relative to the maximal stimulation observed with E2; Ad5-wt-ER infected HAECT-1 cells", "method": "as §1, with “Luc virus (Adenovirus luciferase expression vector driven by 3 repeats of the MHC NFκb site 5′ to the thymidine kinase promoter) in EBM-BSA. After two hours, the cells were washed and incubated at 34° C. for 1 hour.” left out, “Control (no ER infection) cells were processed as above without Ad5-wt-hERα virus infection.” left out\nERα infected HAECT-1 cells or control cells were thawed, diluted 42× in warm EBM-BSA, plated into 96-well plates at 0.1 mL/well and incubated for 4 h at 34° C. […] Luciferase was determined on a Wallac Victor^2 Luminometer (Gaithersburg, Md.) using 10 μL of lysate and mixing with 100 μL of Promega Luciferase Assay reagent. Creatine kinase was determined from the rate of increase in A340 following addition of 100 μL of CK assay reagent (Sigma, cat. No 47-10) to the remainder of the cell lysate. […]"}}}
{"smiles": "C#C[C@]1(O)CC[C@H]2[C@@H]3CCc4cc(O)ccc4[C@H]3CC[C@@]21C", "note": "[EE, reference compound]", "values": [{"measurement": "Uterine Wet Weight Increase, Efficacy (%)", "setting": "C57BL/6 mice", "value": 100, "unit": "%"}, {"measurement": "Uterine Wet Weight Increase, Fold Increase", "setting": "C57BL/6 mice", "value": 5.0}]}
{"smiles": "C[C@H]1c2cc(F)ccc2-c2ccccc2N1S(=O)(=O)c1ccc(O)cc1", "note": "[Example 8, 4-[(S)-8-Fluoro-6-methyl-6H-phenanthridine-5-sulfonyl]-phenol]", "values": [{"measurement": "IC50", "setting": "IL-6; Homo sapiens, HAECT1", "value": 0.303, "unit": "µM"}, {"measurement": "IL-6 Efficacy", "setting": "IL-6", "value": 118, "unit": "%"}, {"measurement": "melting point", "value": 193, "unit": "°C"}, {"measurement": "Uterine Wet Weight Increase, Efficacy (%)", "setting": "C57BL/6 mice", "value": 0, "unit": "%"}, {"measurement": "Uterine Wet Weight Increase, Fold Increase", "setting": "C57BL/6 mice", "value": 0}, {"measurement": "IC50", "setting": "NF-κB; Homo sapiens, HAECT1, IL-1β, luciferase reporter", "value": 0.059, "unit": "µM"}, {"measurement": "NF-κB Efficacy", "setting": "NF-κB; relative to the maximal inhibition observed with E2", "value": 99, "unit": "%"}]}
{"smiles": "C[C@H]1c2cc(F)ccc2-c2ccccc2N1S(=O)(=O)c1ccc(OS(N)(=O)=O)cc1", "note": "[Example 22, 4-{[(6S)-8-Fluoro-6-methylphenanthridin-5(6H)-yl]sulfonyl}phenyl sulfamate]", "values": [{"measurement": "melting point", "value": "165.5 to 167.3", "unit": "°C"}]}
{"smiles": "C[C@]12CC[C@@H]3c4ccc(O)cc4CC[C@H]3[C@@H]1CC[C@@H]2O", "note": "[Example E2, 17-β-estradiol, reference compound]", "values": [{"measurement": "IC50", "setting": "IL-6", "value": 0.0017, "unit": "µM"}, {"measurement": "IL-6 Efficacy", "setting": "IL-6", "value": 100, "unit": "%"}, {"measurement": "CK Efficacy", "setting": "creatine kinase (CK)", "value": 100, "unit": "%"}]}
